Article PMC11468675, “Near‐Infrared Bodipy‐Based Molecular Rotors for β‐Amyloid Imaging In Vivo” (Advanced Healthcare Materials, 2023)
Values joined by “and” are separate entries in the source; they are usually repeats but may differ in a detail not shown here. Identical values can stand only once.

Key:
Aβ aggregates = conditions: reported probe; ref (8); cited from earlier work
Aβ1–42 aggregates [1] = target: T1, Aβ1–42 aggregates (Homo sapiens, UniProt P05067); assay: Fluorescence-based saturation binding assay; conditions: 10% EtOH/PBS, triplicate
T1 construct: purchased Shanghai Macklin Biochemical Technology Co., Ltd

Aβ1–42 aggregates [2] = target: T1, Aβ1–42 aggregates; assay: Fluorescence enhancement assay with Aβ aggregates; assay type: binding; conditions: for Em, with Aβ / Em shift, with Aβ: 10% ethanol/PBS; for Em shift, with Aβ: + red shift, − blue shift; for Fluorescence enhancement (Fold = FL intensity probe+Aβ / probe): probe 1 μM in 10% EtOH/PBS, Aβ aggregates 33 µg mL−1
Excerpt: Thioflavin‐T (ThT) is the gold standard probe, commonly used as an in vitro fluorescence stain to determine the existence of Aβ aggregates. The ThT probe has a typical D–A structure, and its HOMO and LUMO electron clouds are redistributed from the donor (HOMO) to the acceptor (LUMO), which is typical for ICT probes.^[ [46] ^] In addition, the single bond between the benzene ring in the ThT probe and the benzothiazole salt, and the N,N‐dimethylamino group attached to the benzene ring can rotate freely, resulting in ThT becoming a molecular rotor. After ThT binds to Aβ, the rotation of the molecular rotor is restricted, and most of the electrons in the excited state return to the ground state by radiative transition, resulting in a substantial increase in fluorescence. […] The fluorescence response of TPyrBDP, TPipBDP, and THAIBDP with Aβ1–42 aggregates and BSA was evaluated in PBS (10% ethanol) solution. The formation of Aβ1–42 aggregates was characterized by TEM. The morphology of Aβ1–42 aggregates was filamentous (Figure S25b, Supporting Information), while the morphology of Aβ1–42 oligomers was a point‐like structure with a minimum diameter 44 nm (Figure S25a, Supporting Information). The images confirmed that Aβ1–42 aggregates were prepared successfully. As shown in Figure 2c‐f and Table S1, Supporting Information, a 42.5‐fold enhancement of fluorescence was observed when TPyrBDP interacted with the Aβ1–42 aggregates. […] The results confirmed the calculation results in Figure 1. […] In Figure 1b, the three probes are inserted into the hydrophobic pocket of Aβ1–42 aggregates when they interact with Aβ1–42 aggregates, resulting in changes of λ em. The fluorescence response of BSA with probes may cause non‐specific fluorescence enhancement, thus generating false signals. Therefore, we evaluated the interaction between the three probes and BSA. […] The selectivity of TPyrBDP, TPipBDP, and THAIBDP to different ions and amino acids was also evaluated. […] The ions and amino acids had no influence on the fluorescence enhancement of the probes. To quantify the binding affinity (K d) of the probes to Aβ1–42 aggregates, fluorescence‐based saturation binding assays were conducted using Aβ1–42 aggregates. The lower the K d values, the better the affinities.
To a solution of HFIP (600 μL) was added hum an Aβ42 (1 mg). After that, the solution was ultrasonicall y t reated for 2 min to destroy the oligomer probabl y formed, followed b y placing the mixture into an ice bath for 2 h. The solution was dispensed 20 μL per cent rifuge tube, dried by nitro gen, and stored at −80 °C.
To a centrifuge tube (containing 33 μg of Aβ42) was added 540 μL of PBS and 1% hydrox yl amine solution (60 μL); the solution was s haken on a shaker (300 rpm) at 37 °C for 72-96 h to form the Aβ42 aggregates. The Aβ42 aggregates were characterized by transmission electron microscop y (TEM).
Fluorescence Enhancement Assay
To a solution of probes were added pretreated Aβ42 aggregates (33 μg) or bovine serum albumin (BSA). The mix ture (the final concentration of probes was 1μM in 10% EtOH/PBS) was immediatel y transferred to a fluorescence spectrophot ometer (U-3900H, HITACHI, J apan) to record their spectrum (Ex slit = 10 nm, Em slit = 20 nm).
The probes alone (1μM in 10% EtOH/PBS), PBS, and BSA were also tested under the same conditions. The fluorescence enhancem ent was calculated usin g the followin g formula: fold = the fluorescence intensit y of the probe with Aβ42 or BSA/the fluorescence intensit y of probe alone. […]
(1 picture or pasted object on this page, not shown here)

Aβ1–42 aggregates [3] = target: T1, Aβ1–42 aggregates; assay: In vitro Aβ42 aggregate staining in solution (CLSM); assay type: binding; conditions: probe 5 µM, ThT 10 µM
Description: In Vitro Aβ42 staining in solution
Aβ42 aggregates were prepared according to the literature reported method 2. Aβ42
aggregate solution (20 μL) was added dropwise to a slide (CITOTEST), and then spread
until dry. ThT (10 μM, 20 μL) was added dropwise and spread until it was dry. Prob es
were added dropwise and spread until dr y. Anti-fluorescence quenchin g reagent (10-20
μL) was added dropwise and covered with a cover slide. The fluorescence signal was
captured b y C LSM. λex (ThT) = 488 nm, λem (ThT) = 508-550 nm; λex (probe) = 633 nm,

[4] = target: Aβ plaques in brain slices (Homo sapiens, UniProt P05067); assay: In vitro brain slice fluorescence staining, co-staining with ThT; conditions: Tg mice slices, 13-month-old, female
Description: To confirm whether the probes could bind Aβ deposits in brain slices, the fluorescence staining experiment were performed using slices of Tg mice (13‐month‐old, female). The staining results were imaged using CLSM. To ensure the accuracy of the staining results, commercial fluorescent dye ThT was used to co‐stain the same sections. The fluorescence signals of the slices were acquired at the same position using different channels of the CLSM. As shown in Figure 4 and Figure S27–S29, Supporting Information, Aβ plaques were highlighted by the probes with a high signal‐to‐background ratio. In contrast, there was no fluorescence signal for wild‐type slices (Figures S30–S32, Supporting Information). Since Aβ plaques are abundantly produced in the hippocampal and cortical regions of the brain, we imaged the corresponding regions of the slices, respectively. The staining results with ThT (Figure 4a,b,i,j,q,r) are shown in green, and the staining results of the probes TPyrBDP (Figure 4c,d), TPipBDP (Figure 4k,l), and THAIBDP (Figure 4s,t) are shown in red. All three probes could stain Aβ plaques both in the hippocampal and cortical regions successfully, and the corresponding merged image further confirmed the staining results. To quantify the colocalization effect, the Pearson correlation coefficients (R‐value) were calculated using ImageJ software. The closer the R‐value is to 1, the better the colocalization of the probe and ThT.
(§1) In Vitro Brain Slice Fluorescence Staining
The paraffin-embedded blank sections (5 μm) were immersed in x ylene for 5 min for deparaffinization and then washed with ethanol for 2 min and water for 5 min. […]
Human blood (1 m L, provided b y China-J apan Friendly Hospital, Beijing, China) was first diluted with 2 m L of PBS solution; the sample was centrifugated for 10 min (8000 rpm) and washed with PBS 5 times to separate red blood cells from serum. […] The supernatant (100 μL) was transferred to 96-well plates, and its ultraviolet absorption (Ex = 490 nm) was evaluated. […]

Cytotoxicity MTT assay = assay type: cell-based; conditions: rat, PC12 cells, read-out: Cell viability
Description: The cells used for the cyt otox icit y t est were PC12, purchased from the Chinese National Infrastructure of Cell Line Resource. The experiment was divid ed into two parts, cell culture, and c yt otox icit y test. The PC12 cells were first cultured in cell culture fluid (high-glucose DMEM/heat-inactivated FBS/ heat-inactivated HS /penicillin and streptomycin = 100: 5: 5: 1, v/v) under 5% CO2 at 37 °C. After a period of incubation, PC12 were transferred into a sterile 96-well plate (1 × 10^4 cells per well) and cultured
for 24 h under 5% CO2 at 37 °C. After that, the cell culture fluid was removed, and gradient concentrations of probes (TP yrBDP, TPipBDP, THAIBDP), Aβ in the cell culture fluid (0, 2, 5, 10, 12, and 15 μM), or probes+ Aβ in th e cell culture fluid (5 μM probe + 10 μM Aβ) were added into the 96-well plate and incubat ed for another 24 h.
After that, the gradient concentration of probes or Aβ was removed and MTT (5× MTT was diluted into 1× MTT using dilution buffer, 50 μL per well) was added; t he mix ture was incubated at 37 °C for 4 h. The supernatant was removed, and form azan (150 μL per well) was added; the mix ture was placed on a shaker to be mix ed well. The cell viabilit y was determined by a microplate reader at 490 nm.

Hemolysis rate assay = assay type: cell-based; conditions: human, human red blood cells separated from whole blood, probe up to 100 µM, room temperature
Description: A cytotoxicity assay is one of the methods to evaluate the biocompatibility of probe molecules. Probes are generally considered to have low cytotoxicity when the cell viability is above 80%. Therefore, the cytotoxicity of TPyrBDP, TPipBDP, and THAIBDP was evaluated using PC12 cells using a standard MTT assay method. […] The hemolysis rate of probes is one of the common methods to evaluate the effect of probes on the blood of live animals. Therefore, the hemolysis rate of probes TPyrBDP, TPipBDP, and THAIBDP with blood samples was also evaluated. […] Therefore, the probes were suitable for subsequent cell experiments and animal experiments.
as §1
The paraffin-embedded blank sections (5 μm) were immersed in x ylene for 5 min for deparaffinization and then washed with ethanol for 2 min and water for 5 min. The brain slices were incubated with 40 μL of 10 mg/ m L ThT for 5 min and washed with 50% ethanol solution for 3 min. Next, the brain sl ices were incubated with 40 μL of 1 μM probes for 20 min. After absorbin g th e residual liquid with dust-free paper, th e antifluorescence attenuating agent was added dropwise, and neutral gum was used for mounting. The slices were then placed under a laser confocal microscope (Lecia SP5) […]
Hemolysis Rate (HR) Assay
Human blood (1 m L, provided b y China-J apan Friendly Hospital, Beijing, China) was first diluted with 2 m L of PBS solution; the sample was centrifugated for 10 min (8000 rpm) and washed with PBS 5 times to separate red blood cells from serum. Finall y, the red blood cells were dispersed in 10 m L of P BS solution, from which 0.2 m L was taken, and 0.8 m L of different reagents (P BS, DI water, and 10, 20, 30, 50, and 100 μM of probes) was added. After mix ing evenl y, the samples were allowed to stand still for 3 h at room temperature and centrifuged (12,000 rpm, 5 min) to determine hemolysis circumstances. The supernatant (100 μL) was transferred to 96-well plates, and its ultraviolet absorption (Ex = 490 nm) was evaluated. […]

[5] = tested on: Aβ1–42 aggregates in PC12 cells; assay: Cell imaging of Aβ1–42 aggregates, co-staining with ThT; assay type: cell-based
Excerpt: PC12 cells were used to study the affinity between TPipBDP and Aβ1–42 aggregates. Aβ1–42 aggregates have great neurotoxicity to interfere with the normal function of the brain. […] To study the imaging of TPipBDP with Aβ1–42 aggregates, the imaging effect of TPipBDP with Aβ1–42 aggregates was studied in PC12 cells. […] After adding Aβ1–42 aggregates to PC12 cells, some smaller‐than‐cell green fluorescence (ThT) and red fluorescence (TPipBDP) spots were observed. These smaller‐than‐cell bright fluorescence spots were Aβ1–42 aggregates. The Aβ1–42 aggregates can be clearly observed in the bright field image. […]
After that, the gradient concentration of probes or Aβ was removed and MTT (5× MTT was diluted into 1× MTT using dilution buffer, 50 μL per well) was added; t he mix ture was incubated at 37 °C for 4 h. […] The cell viabilit y was determined by a microplate reader at 490 nm.
To a centrifuge tub e (containing 1 mg of Aβ42) was added 180 μL of DMSO and 720 μL of PBS (pH = 7.2-7.4, Hyclone) and 1% hydrox ylamine solution (100 μL); the solution was shaken on a shaker (300 rpm) at 37 °C for 7 da ys to form the Aβ42 aggregates. Initial peptide concentrations were determined spectrophotometricall y at 280 nm, using an extinction coefficient of 1280 M-1cm-1. […]

Chain of Aβ plaques in brain slices (P05067 672-711 limits assumed): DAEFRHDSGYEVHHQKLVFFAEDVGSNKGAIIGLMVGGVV
T1 sequence (P05067 672-713 limits assumed): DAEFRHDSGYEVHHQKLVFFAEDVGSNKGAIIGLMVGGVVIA

| Kd (Aβ1–42 aggregates [1]) | Em, with Aβ (Aβ1–42 aggregates [2]) | Em shift, with Aβ (Aβ1–42 aggregates [2]) | λem blueshift after interacting with Aβ1–42 aggregates (Aβ1–42 aggregates [2]; PBS (10% ethanol)) | Fluorescence enhancement (Fold = FL intensity probe+Aβ / probe) (Aβ1–42 aggregates [2]) | Staining of Aβ1–42 aggregates in solution (Aβ1–42 aggregates [3]) | Pearson correlation coefficient (R-value) with ThT, hippocampus region [4] | λem redshift after interacting with Aβ1–42 aggregates (Aβ1–42 aggregates [2]; PBS (10% ethanol)) | Pearson correlation coefficient (R-value) with ThT, cortex region [4] | SMILES | Kd (Aβ aggregates) | viability at 24 h (Cytotoxicity MTT assay) | hemolysis at 3 h (Hemolysis rate assay) | R-value (colocalization with ThT), probe + Aβ group ([5]; PC12 cells with Aβ1–42 aggregates (10 µM)) | R-value (colocalization with ThT), control group ([5]; PC12 cells without Aβ) |
| --- | --- | --- | --- | --- | --- | --- | --- | --- | --- | --- | --- | --- | --- | --- |
|  |  |  |  |  |  |  |  |  | Cc1cc(/C=C/c2ccc(N(C)C)cc2)n2c1C=C1C=CC=[N+]1[B-]2(F)F [BAP-1] | 44.1 nM |  |  |  |  |
| 28.2 ± 3.07 nM | 701 nm | -22 nm | ≈ 22 nm | 27.23 fold and 27.2 fold | stained Aβ1–42 aggregates successfully | 0.72 |  |  | CC1=CC(C)=[N+]2C1=Cc1c(C)cc(/C=C/c3ccc(N4CCCCCC4)s3)n1[B-]2(F)F [THAIBDP] |  | > 80% | < 5% |  |  |
| 28.3 ± 5.94 nM | 692 nm | -27 nm | ≈ 27 nm | 75.54 fold and 75.5 fold |  |  |  |  | CC1=CC(C)=[N+]2C1=Cc1c(C)cc(/C=C/c3ccc(N4CCCCC4)s3)n1[B-]2(F)F [TPipBDP] |  | > 80% | < 5% | 0.84 | 0.65 |
| 54.2 ± 5.82 nM | 693 nm | +13 nm |  | 42.48 fold and 42.5 fold | stained Aβ1–42 aggregates successfully | 0.87 | ≈ 13 nm | 0.85 | CC1=CC(C)=[N+]2C1=Cc1c(C)cc(/C=C/c3ccc(N4CCCC4)s3)n1[B-]2(F)F [TPyrBDP] |  | > 80% | < 5% |  |  |
